The values that follow come from patent publication US6900194B1, “Use of substituted 4-biarylbutyric and 5-biarylpentanoic acid derivatives as matrix metalloprotease inhibitors for the treatment of respiratory diseases” (Bayer Aktiengesellschaft, priority 1998, dated 2005).

Test [1] has as its target T1, MMP-8 (Neutrophil Collagenase) (Homo sapiens, UniProt P22894).
T1 construct: Active recombinant truncated form (met^80-gly^242) was obtained according to the protocol of Knauper; made in house
Kind of test: P218 quenched fluorescence assay, MMP-8. The format is biochemical. An excerpt: (§1) P218 Quenched Fluorescence Assay for MMP Inhibition:
(§2) This assay is adapted from the one described by Knight et al., FEBS Letters, 296, 263-266 (1992) for MMP-3 and a related substrate. The rate of hydrolysis of the synthetic substrate H-MCA-Pro-Lys-Pro-Leu-Ala-Leu-DPA-Ala-Arg-NH2 (P218) by the respective MMPs is monitored fluorometrically, using an excitation wavelength of 340 nm and an emission wavelength of 395 nm, in the presence or absence of the test compounds. The substrate is made up initially in 100% DMSO to a concentration of 1×10^−2 M, then diluted in assay buffer to a final concentration of 20 μM. […] The total assay volume in a 96 well microtitre plate is 150 μl, Cleavage of the substrate between the Leu-Ala residues allows the fluorescence of the MCA group to be detected on a fluorometer (Cytofluor II) following excitation at 340 nm and emission at 395 nm. Change in fluorescence is continually monitored for a 40 min period.
(§3) The Ki's are calculated using the method described by Williams and Morrison, Methods in Enzymology, 63, 437-467 (1979) to measure Ki apparent for tight binding inhibitors, and is summarised as follows: [I]0/(1−vi/v0)=Ki apparent ×vi/v0+[E]0 [I]0 and [E]0 are inhibitor and enzyme concentrations, and vi/v0 are reaction velocities with/without inhibitor. […]
(§4) IC50's are determined at each enzyme concentration using Xlfit software. […]

Test [2] addresses T2, MMP-1 (Human Gingival Fibroblast Interstitial Collagenase) (Homo sapiens, UniProt P03956).
T2 construct: Jack Windsor (supplied, not bought)
T2 sequence (P03956 100-469): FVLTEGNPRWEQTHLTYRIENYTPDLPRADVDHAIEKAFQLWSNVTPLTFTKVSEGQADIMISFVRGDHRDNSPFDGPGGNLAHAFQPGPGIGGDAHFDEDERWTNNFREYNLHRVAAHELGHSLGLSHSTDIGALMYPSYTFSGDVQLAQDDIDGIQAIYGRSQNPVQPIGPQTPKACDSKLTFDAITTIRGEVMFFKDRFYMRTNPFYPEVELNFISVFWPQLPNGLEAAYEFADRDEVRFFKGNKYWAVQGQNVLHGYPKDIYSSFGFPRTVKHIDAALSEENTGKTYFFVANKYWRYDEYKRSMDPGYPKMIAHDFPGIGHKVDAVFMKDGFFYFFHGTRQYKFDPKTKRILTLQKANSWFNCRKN
Kind of test: P218 quenched fluorescence assay, MMP-1. The conditions noted are these: read-out: Potency Ki vs. MMP-1. The format is biochemical.
Text: as §1, §2, §3, §4

The target of a further test is T3, MMP-3 (Stromelysin) (Homo sapiens, UniProt P08254).
T3 construct: Truncated Pro-stromelysin-257 is expressed in a soluble form in E. coli as described by Marcy et al; made in house; host or cells: E. coli
In words: P218 quenched fluorescence assay, MMP-3. The format is biochemical.
Text: as §1, §2, §3, §4

Another test addresses T4, Rat MMP-13 (Rattus norvegicus, UniProt P23097).
T4 construct: Rat pro-MMP-13 was obtained according to the protocol of Roswit, Arch; Biochem. Biophys
In words: P218 quenched fluorescence assay, MMP-13 (rat). The test is classed as biochemical. The settings on record: read-out: IC50 vs. MMP-13 (value marked *).
Text: as §1, §2, §3, §4

The next test deals with MMP-2 (Gelatinase A) (Homo sapiens, UniProt P08253). In words: biochemical.
Chain of MMP-2 (Gelatinase A) (P08253 110-660): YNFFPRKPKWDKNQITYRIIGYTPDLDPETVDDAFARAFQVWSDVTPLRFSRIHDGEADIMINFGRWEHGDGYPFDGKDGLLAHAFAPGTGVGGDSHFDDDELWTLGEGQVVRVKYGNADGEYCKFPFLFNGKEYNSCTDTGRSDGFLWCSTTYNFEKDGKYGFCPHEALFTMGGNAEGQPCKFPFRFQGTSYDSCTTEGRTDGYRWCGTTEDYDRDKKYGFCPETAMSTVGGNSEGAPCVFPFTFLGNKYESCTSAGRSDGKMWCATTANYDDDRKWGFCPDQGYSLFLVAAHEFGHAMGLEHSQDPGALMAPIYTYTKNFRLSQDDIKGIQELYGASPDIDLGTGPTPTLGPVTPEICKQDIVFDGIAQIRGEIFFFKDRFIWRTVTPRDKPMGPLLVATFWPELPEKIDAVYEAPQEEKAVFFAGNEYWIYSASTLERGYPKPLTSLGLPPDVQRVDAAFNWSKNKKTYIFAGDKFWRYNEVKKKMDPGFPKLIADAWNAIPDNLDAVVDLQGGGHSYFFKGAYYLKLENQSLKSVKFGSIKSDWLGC

T3 sequence (P08254 100-274): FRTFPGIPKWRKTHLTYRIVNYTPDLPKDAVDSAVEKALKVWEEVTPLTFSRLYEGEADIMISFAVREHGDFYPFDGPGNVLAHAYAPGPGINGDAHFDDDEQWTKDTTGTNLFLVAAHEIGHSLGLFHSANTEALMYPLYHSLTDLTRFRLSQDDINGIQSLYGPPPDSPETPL
T1 sequence (P22894 100-262): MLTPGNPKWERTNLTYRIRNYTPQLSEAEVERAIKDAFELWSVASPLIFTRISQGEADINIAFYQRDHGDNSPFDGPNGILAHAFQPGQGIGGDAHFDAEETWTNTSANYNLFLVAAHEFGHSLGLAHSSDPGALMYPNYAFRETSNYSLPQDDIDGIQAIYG

A word on the IC50: it is the concentration that inhibits the measured activity by half. In general, Ki refers to a dissociation constant, usually derived from enzyme kinetics or from competition with a known ligand. For `CCOc1ccc(-c2ccc(C(=O)CC(CCN3C(=O)c4ccccc4C3=O)C(=O)O)cc2)cc1` (single isomer, unassigned; (+)) [Example 2, (+)-2-[2-(1,3-Dioxo-1,3-dihydro-2H-isoindol-2-yl)ethyl]-4-(4′-ethoxy[1,1′-biphenyl]-4-yl)-4-oxobutanoic acid], the IC50 in test [1] (read-out: IC50 vs. MMP-8 (value marked *)) stood at 21.6 nM; on MMP-3 (Stromelysin) (read-out: IC50 vs. MMP-3 (value marked *)) it was 60 nM; on Rat MMP-13, 69 nM; against MMP-2 (Gelatinase A), 3.2 nM. For the same compound, the inhibitory constant (Ki) in test [2] was greater than 3000 nM.
In the case of `O=C(CC(CCN1C(=O)c2ccccc2C1=O)C(=O)O)c1ccc(-c2ccc(Cl)cc2)cc1` (single isomer, unassigned; (+)) [Example 4, (+)-4-(4′-Chloro[1,1′-biphenyl]4-yl)-2-[2-(1,3-dioxo-1,3-dihydro-2H-isoindol-2-yl)ethyl]-4-oxobutanoic acid], the Ki in test [1] (read-out: Potency Ki vs. MMP-8) amounted to 7.5 nM; in test [2] it was 639 nM; on MMP-3 (Stromelysin) (read-out: Potency Ki vs. MMP-3), 3.7 nM; on MMP-2 (Gelatinase A) it was 0.5 nM. The IC50 at Rat MMP-13 is 296 nM.
